Patent US12391660B2, “Heteroaromatic acetamide derivative, and preparation and use thereof” (Hangzhou Westan Pharmaceutical Technology Co., Ltd, priority 2019, dated 2025)

Key:
asthmatic mice = assay: Ovalbumin-induced asthma mouse model (BALF leukocyte counts, lung inflammation); format: in vivo, BABL/c mice; conditions: for percentage of eosinophils in BALF / percentage of macrophages in BALF / percentage of neutrophils in BALF / total number of leukocytes in BALF: intraperitoneal injection; for percentage of eosinophils in BALF / percentage of macrophages in BALF / percentage of neutrophils in BALF / total number of leukocytes in BALF / eosinophils in BALF: vs model control
From the text: 4. Effects of Compounds on Ovalbumin-Induced Asthma in Mouse and Rat Models
SPF-grade SD male rats (purchased from Zhejiang Academy of Medical Sciences, license number SCXK (Zhejiang) 2019-0002) with a body weight of 160-180 g; and SPF-grade female BABL/c mice (purchased from Zhejiang Weitong Lihua Experimental Animals Technology Co., Ltd., license number SCXK (Zhejiang) 2019-0001) with a body weight of 16-18 g were used. The above animals were raised by the Experimental Animal Center of Zhejiang Academy of Traditional Chinese Medicine.
Formulation of compound solution: compound was vortexed in a solvent system, dissolved by ultrasound, and prepared into a solution at a corresponding concentration, which was prepared just before use (the solvent system was composed of 5% Solutol HS 15, 5% DMSO and 90% physiological saline).
BABL/c mice or SD rats were randomly divided into: normal control group, model control group, dexamethasone group (0.72 mg/kg), and the respective test compound groups (one group for each dose), 10 mice in each group; 6 rats in each group.
Sensitization of mice: on the mornings of Day 0, Day 7, and Day 14, mice in the model control group and the respective drug administration groups were intraperitoneally injected with 0.2 ml of 10% OVA sensitizing solution (Yuanye Bio), and the normal control group was intraperitoneally injected with an equal volume of normal saline. In the afternoons of Day 7 and Day 14, mice in the model control group and the respective drug administration groups were intraperitoneally injected with 0.2 ml of 10% OVA (Sigma), and the normal control group was intraperitoneally injected with an equal volume of normal saline.
Mice: from Day 21, the normal control group and the model control group were not treated; the dexamethasone group and the respective test compound groups were intraperitoneally injected, 20 minutes before each challenge, with the corresponding drugs, injection volume: 0.1 ml/10 g, administered for 7 consecutive days; mice in the test compound-oral group were given the corresponding drugs by intragastric administration 30 minutes before the challenge; the test compound-atomization group or the dexamethasone-atomization group was given the corresponding drugs at different concentrations before challenge, 8 ml for each group, atomization for 30 minutes; the normal control group and the model control group were given no treatment. Administration was conducted for 7 consecutive days.
Mice: from Day 21, the mice in the model control group and the respective administration groups were placed in airtight containers in turn, and the challenging solution was atomized with an ultrasonic nebulizer (approximately 6-8 ml each time), twice a day, OVA challenging solution from Yuanye Shanghai was atomized in the morning, and OVA challenging solution from Sigma was atomized in the afternoon. Mice were challenged for 30 minutes per atomization, for 7 consecutive days. The normal control group was not treated. Mice in the model control group developing cyanosis of lips, accelerated breathing, unsteadiness during standing, nodding breathing, abdominal muscle cramps, etc. was deemed as a sign of success of the animal model.
24 hours after completion of the last challenge, the trachea of the mouse was exposed in front of the neck, a horizontal incision was made in the trachea with an ophthalmic scissor, and a 5 ml syringe-modified tracheal intubation needle was inserted, the left main bronchus was ligated, and the right main bronchus was intubated and tightened with surgical suture. Bronchoalveolar lavage was conducted 3 times with 0.3 ml normal saline, pumpback twice each time. The BALF was combined and collected in a 1.5 ml test tube, which was placed on ice or in a refrigerator at 4 degrees.
50 μl of the above BALF was taken, and 100 μl white blood cell counting diluent (2% iced acetic acid solution) was added thereto and mixed evenly therewith. […]

human TRPA1 = human TRPA1 (Homo sapiens (Human), UniProt O75762); assay: Inhibitory activity on human TRPA1 by conventional patch clamp assay; format: cell-based; conditions: for inhibition at 5 µM: read-out: TRPA1 % Inhibition rate (5 μM); for IC50: HEK293 human TRPA1, 100 μM cinnamaldehyde
Sequence of human TRPA1 (O75762 whole entry): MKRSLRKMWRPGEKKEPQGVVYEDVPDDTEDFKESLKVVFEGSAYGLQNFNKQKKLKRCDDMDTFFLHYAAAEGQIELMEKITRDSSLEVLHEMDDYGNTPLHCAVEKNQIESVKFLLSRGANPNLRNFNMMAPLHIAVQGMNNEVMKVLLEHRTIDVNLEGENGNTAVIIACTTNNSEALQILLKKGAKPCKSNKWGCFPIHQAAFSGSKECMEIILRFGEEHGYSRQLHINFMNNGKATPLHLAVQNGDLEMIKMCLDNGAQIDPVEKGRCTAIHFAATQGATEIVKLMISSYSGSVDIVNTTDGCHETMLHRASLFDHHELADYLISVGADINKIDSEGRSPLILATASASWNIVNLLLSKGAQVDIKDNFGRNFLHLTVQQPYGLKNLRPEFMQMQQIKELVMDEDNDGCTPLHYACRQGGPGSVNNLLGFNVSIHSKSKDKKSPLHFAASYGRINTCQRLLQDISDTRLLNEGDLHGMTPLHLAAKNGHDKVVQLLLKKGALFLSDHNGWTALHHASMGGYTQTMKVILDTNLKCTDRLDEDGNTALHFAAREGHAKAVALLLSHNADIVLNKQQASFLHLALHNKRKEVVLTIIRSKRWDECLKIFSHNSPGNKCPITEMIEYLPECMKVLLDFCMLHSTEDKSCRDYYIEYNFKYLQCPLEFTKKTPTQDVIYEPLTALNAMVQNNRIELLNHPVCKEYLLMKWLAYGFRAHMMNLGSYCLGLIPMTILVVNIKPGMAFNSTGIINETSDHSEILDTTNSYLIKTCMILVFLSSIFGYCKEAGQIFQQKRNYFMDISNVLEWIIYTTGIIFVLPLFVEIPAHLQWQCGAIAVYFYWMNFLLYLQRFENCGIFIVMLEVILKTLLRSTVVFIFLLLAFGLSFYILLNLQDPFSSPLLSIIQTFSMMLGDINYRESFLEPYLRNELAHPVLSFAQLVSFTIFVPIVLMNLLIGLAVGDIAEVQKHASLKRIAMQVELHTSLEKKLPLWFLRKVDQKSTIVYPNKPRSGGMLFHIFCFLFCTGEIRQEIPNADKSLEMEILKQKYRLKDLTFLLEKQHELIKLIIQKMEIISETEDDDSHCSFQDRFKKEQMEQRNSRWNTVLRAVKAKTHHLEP
From the text: 2. Inhibitory Activity on Human TRPA1 by Conventional Patch Clamp Assay
In order to compare the influences of different measuring methods on the inhibitory activity of compounds, a conventional patch clamp method was used to further measure the inhibitory activity of compounds 1, 11, 31, 50, and 78 on TRPA1. The principle and procedures of the conventional patch clamp assay could be found in the literature report of Chen et al [Chen et al. Pain 2011, 152(5):1165-72].
Evaluation of TRPA1 inhibitory activity of compounds was conducted using the HEK293 recombinant cell strain (Creative Biogene, NY) stably expressing human TRPA1. Cells were cultured in a DMEM/F12 (3:1, Thermo Fisher Scientific) medium (containing 5% calf serum, 2 mM glutamine and 20 mM HEPES) in an incubator at 37° C. and air humidity containing 5% CO2.
During the experiment, the adherent cells were placed in a recording room under the inverted microscope. All experiments were performed at room temperature. Each cell itself was used as a control thereof.
Test compounds at a final concentration were all prepared on the testing day and then dissolved in the extracellular fluid. The extracellular fluid was (mM): NaCl, 137; KCl, 4; CaCl2, 1.8; MgCl2, 1; HEPES, 10; glucose 10; pH 7.4 (NaOH titration). All the solutions of the test compounds and control compounds contained 0.3% DMSO.
The compounds were all perfused with a perfusion system by virtue of their own gravity. At least two cells were tested for each concentration of the compound. After the current became stable, the variation in magnitude of the current before and after the compound was used to calculate the blocking effect of the compound. 100 μM cinnamaldehyde was used as the positive control.
The cells were transferred to the perfusion tank and perfused with extracellular fluid. The intracellular fluid was: 130 mM K-aspartate; 5 mM MgCl2; 5 mM EGTA; 10 mM
HEPES; pH 7.2 (KOH titration). The intracellular fluid was stored in a small amount in a −80 degree refrigerator in batches, and thawed on the day of the experiment. The electrode was pulled with PC-10 (Narishige, Japan). Whole-cell patch clamp recording was adopted and noise was filtered at one-fifth of the sampling frequency.
The cells were clamped at 20 mV, and then depolarized to 80 mV with a square wave of 500 milliseconds to obtain the TRPA1 current (see FIG. 1).
This procedure was repeated every 3 seconds. Cells were patched in a normal extracellular fluid, current A was obtained via voltage procedure testing, and then perfusion was conducted with an extracellular fluid added with 100 μM cinnamaldehyde to activate TRPA1 current to obtain current B. After the current stabilized, elution was conducted with normal extracellular fluid and perfusion was conducted with an extracellular fluid added with 100 μM cinnamaldehyde and a compound at various concentrations to obtain current C. Finally, blocking rate of the compound was obtained according to […], see FIG. 2.
Data collection and analysis was conducted using pCLAMP 10 (Molecular Devices, Union City, CA). Current stabilization meant that the variation in the current with time was within a limited range. The magnitude of the current after stabilization was used to reflect the effect of the compound in this process.

Row | Structure (SMILES) | percentage of eosinophils in BALF (asthmatic mice; P<0.01) | percentage of macrophages in BALF (asthmatic mice; P<0.01) | percentage of neutrophils in BALF (asthmatic mice; P<0.01) | total number of leukocytes in BALF (asthmatic mice; P<0.01) | lung tissue inflammation area (asthmatic mice; oral administration, P<0.05) | eosinophils in BALF (asthmatic mice; oral administration, P<0.01) | airway inflammation score (asthmatic mice; spray inhalation, P>0.05) | lung tissue inflammation area (asthmatic mice; spray inhalation, respective dose groups, P<0.01, 0.05) | eosinophils in BALF (asthmatic mice; spray inhalation, respective dose groups, P<0.05, 0.01) | inhibition at 5 µM (human TRPA1) [%] | IC50 (human TRPA1) [nM]
1 | N#Cc1ccc(NC2(C(=O)N3CCN(c4ccc(C(F)(F)F)cc4)CC3)CCCC2)cc1 [Compound 1, 4-((1-(4-(4-(trifluoromethyl)phenyl)piperazine-1-carbonyl)cyclopentyl)amino)benzonitrile] | decreased | increased | decreased | decreased | significantly reduced | significantly reduced | decreasing trend, but not reaching a statistical significance | reduce the lung tissue inflammation area of asthmatic mice in a dose-dependent manner | dose-dependent decrease | 99 | 56
2 | CC(C)(C)C1CCN(C(=O)C2(Nc3ccc(C#N)cc3)CCCC2)CC1 [Compound 31, 4-((1-(4-(tert-butyl)piperidine-1-carbonyl)cyclopentyl)amino)benzonitrile] | decreased | increased | decreased | decreased |  |  |  |  |  | 117 | 98
